Measurements reported in patent publication US5328913A, “Minoxidil analogs as inhibitors of cell proliferation and lysyl hydroxylase” (priority 1992, dated 1994).
Entries after “also recorded” stand apart in the source; their conditions may differ.

Assays:
lysyl hydroxylase [1] = assay: Lysyl hydroxylase activity in fibroblasts treated with minoxidil and its hydroxy derivatives (Example 3); type: cell-based, human; conditions: for Fibroblast Lysyl Hydroxylase Activity: 48 hr
Experimental: (§1) Culture of human skin fibroblasts derived from an apparently normal adult were grown to confluent densities in Dulbecco's modified Eagle's medium supplemented with 10% (v/v) fetal calf serum. Thereafter, the medium was replaced with medium supplemented with 0.5% dialyzed fetal calf serum. […] In some experiments, minoxodil was dissolved in 95% (v/v) ethanol; the final concentration of minoxidil was 0.3 mM and that of ethanol was 0.3%. Cultures treated with ethanol only served as the control.
(§2) During the last 3 hr of treatment, cultures received 100 μM ascorbic acid. The enzyme activities in extracts of treated cells were measured by tritium-release assays described previously (Murad and Pinnell, J. Biol. Chem. 262:11,973 (1987)).

prolyl hydroxylase [2] = assay: Prolyl hydroxylase activity in fibroblasts treated with minoxidil and its hydroxy derivatives (Example 3); type: cell-based, human; conditions: for prolyl hydroxylase activity (in words) / Prolyl Hydroxylase Activity: 1 mM; for prolyl hydroxylase activity (in words): 72 hr
Experimental: (§3) Culture of human skin fibroblasts derived from an apparently normal adult were grown to confluent densities in Dulbecco's modified Eagle's medium supplemented with 10% (v/v) fetal calf serum. Thereafter, the medium was replaced with medium supplemented with 0.5% dialyzed fetal calf serum. The cultures were treated for 72 hr with 1 mM minoxidil, 3'- hydroxyminoxidil,or 4'-hydroxyminoxidil (Upjohn) dissolved in aqueous medium. In some experiments, minoxodil was dissolved in 95% (v/v) ethanol; the final concentration of minoxidil was 0.3 mM and that of ethanol was 0.3%. Cultures treated with ethanol only served as the control.
as §2

[3] = test system: Prolyl Hydroxylations in Human Skin Fibroblasts; assay: Hydroxylation of proline residues in type I procollagen (Hyp/Pro); type: cell-based; conditions: 1 mM; for Hyp/Pro: 72 hr; for activity at 1000 µM: Homo sapiens, Skin fibroblast, 72 hr (Table V), read-out: ratio of hydroxyproline to proline, % control value
Experimental: as §1, with “[…].” for “the final concentration of minoxidil was 0.3 mM and that of ethanol was 0.3%.”
(§4) During the last 6 hr of treatment, cultures were labeled with 50 μCi of L-[2,3-^3 H]proline (35 Ci/mmol) and 50 μCi of L[U-^14 C]lysine ([…]) in 4 ml of lysine-free medium supplemented with 100 μM ascorbic acid. At the end of the incubation period, the medium was removed and mixed with 1 mM each of EDTA, N-ethylmaleimide, and phenylmethylsulfonylfluoride, and the collagenous proteins were precipitated with 30% (NH4)2 SO4. The cell layer was scraped and extracted with 0.5 M acetic acid containing the protease inhibitors as above. The cell extract was neutralized, and the collagenous proteins were precipitated as above. The (NH4)2 SO4 precipitate from the medium and cell layer was separately dissolved in 0.1% SDS/10 mM Tris-HCl (pH 6.8), reduced with dithiothreitol, and analyzed by electrophoresis on 4% SDS-polyacrylamide gels. The bands corresponding to the proαl(I) and proα2(I) chains from the two fractions were pooled and hydrolyzed with 6 M HCl for 24 hr at 110° C. Proline, hydroxyproline, lysine, and hydroxylysine in the hydrolysate were separated by HPLC (Takimitsa et al, J. Dermatol. 16:37 (1989)), and their radioactivity was determined in a Beckman liquid scintillation counter. To isolate type I procollagen the precipitate from the medium and cell layer was separately dissolved in 25 mM Tris-HCl, pH 7.5, containing 2 M urea and 1 mM each of EDTA, N-ethylmaleimide, and phenylmethylsulfonylfluoride, then chromatographed on a DEAE-cellulose column (Freiberger et al, J. Invest. Dermatol. 75:425 (1980)). The procollagen isolated from the two fractions was pooled, hydrolyzed, and analyzed as above.

[4] = test system: Lysyl Hydroxylations in Human Skin Fibroblasts; assay: Hydroxylation of lysine residues in type I procollagen (Hyl/Lys); type: cell-based; conditions: 1 mM; for Hyl/Lys: 72 hr; for activity at 1000 µM: Homo sapiens, Skin fibroblast, 72 hr (Table V), read-out: ratio of hydroxylysine to lysine, percentage of control value
Experimental: as §3, with “[…].” for “the final concentration of minoxidil was 0.3 mM and that of ethanol was 0.3%.”
as §4

[5] = test system: Collagen Synthesis in Human Skin Fibroblasts; assay: Collagen synthesis in human skin fibroblasts; type: cell-based; conditions: 1 mM, 72 hr; mean ± SD of duplicate analysis of two cultures (Table VII)
Experimental: as §3, with “[…].” for “the final concentration of minoxidil was 0.3 mM and that of ethanol was 0.3%.”
During the last 6 hr of treatment, cultures were labeled with 20 μCi of L-[2,3-^3 H]proline in 1 ml of medium supplemented with 100 μM ascorbic acid. The amount of proline radioactivity incorporated into collagen in the medium and cells combined was measured after digestion with a bacterial collagenase, essentially as described previously (Freiberger et al, J. Invest. Dermatol. 75:425 (1980)).

[6] = test system: non-proliferating fibroblasts; assay: Cytotoxicity to non-proliferating fibroblasts (cell number per dish); type: cell-based; conditions: 5 mM, 72 hr
From the text: Certain aspects of the present invention are described in greater detail in the non-limiting Examples that follow. (See also Murad et al, Arch. Biochem. Biophys. 292:234 (1992)).

human skin fibroblasts = assay: Fibroblast proliferation; type: cell-based; conditions: relative to minoxidil
Experimental: Cultures were seeded at a density of 100,000 cells per 35 mm-dish and allowed to attach and proliferate in the presence of 20% calf serum. Drug-treated cultures received 1 mM minoxidil or its hydroxy derivative on day 1 after seeding.

[7] = in vivo; cited from earlier work
lysyl hydroxylase [8] = assay: Lysyl hydroxylase activity in extracts of treated human skin fibroblasts (Example 1, tritium-release assay); type: cell-based; conditions: cultured fibroblasts
Experimental: (§5) Cultures of human skin fibroblasts grown to confluence were incubated for 72 h in medium supplemented with 1% ethanol containing various concentrations of minoxidil or deoxyminoxidil as indicated. Cells were then harvested, and the enzyme activities in extracts of these cells were measured by tritium-release assays (Murad and Pinnell, J. Biol. Chem. 262:11,973 (1987)). The results are expressed as percentages of zero-concentration values.
as §5, with “with 1% acetone containing various concentrations of minoxidil sulfate,” for “deoxyminoxidil”, “tritium release” for “tritium-release”
(§6) Skin fibroblast cultures derived from an apparently normal child (GM05659) were obtained from the Institute for Medical Research, Camden, N.J. The cells were subcultured by trypsinization and used before 25 population doublings. Typically, 4×10^5 cells were seeded onto 100-mm (diameter) plastic petri dishes and allowed to grow in 10 ml of Dulbecco's modified Eagle's minimum essential medium containing 5.6 mM glucose, buffered in pH 7.4 with 24 mM sodium biocarbonate/25 mM Hepes and supplemented with 20% (v/v) calf serum which had been inactivated for 30 min at 56° C. The cells were incubated at 37° C. in a humidified atmosphere of 5% CO2 plus 95% air.
(§7) After a week, the medium was replaced with medium supplemented with 0.5% heat-inactivated diaylzed calf serum, and the incubation was continued for 72 h in the presence of minoxidil or one of its structural analogs. The compounds were dissolved in 95% ethanol, except minoxidil sulfate which was dissolved in acetone; the final solvent concentration was 1% (v/v). During the last 3 h of incubation, cells received 100 μM Na L-ascorbate to ensure complete hydroxylation of the polypeptide precursors of precollagen (Murad et al, J. Invest. Dermatol. 75:404 (1980)).
The medium was then removed and the cells were washed twice with a solution containing 0.14 M NaCl, 5 mM KCl, 0.3 mM Na2 PO4, and 0.4 mM KH2 PO4, adjusted to pH 7.4. The cells were detached from the plates with a solution containing 0.05% trypsin, 0.54 mM EDTA, 5.5mM glucose, 6.90mM NaHCO3, […], and 5 mM KCl. The trypsinization was terminated with 2 vol of 20% serum-supplemented medium, and the cell number in an aliquot of the suspension was determined using a Coulter counter.
The detached cells were collected by centrifugation at 500g for 6 min at 4° C. washed twice by suspending in phosphate-buffered NaCl/KCl as above, and then centrifuged. The cell pellet was suspended in a medium (1 ml/5×10^6 cells) containing 0.2 M NaCl, 0.1 M glycine, 50 μM dithiothreitol, 20 mM Tris-HCl, buffer (pH 7.5), 0.1% Triton X-100, and 0.01% soybean trypsin inhibitor. The suspension was sonicated for 30 s using a Branson sonifier cell disrupter. The lysate was centrifuged at 27,000g for 1 h at 4° C., and the resulting supernatant was used for prolyl and lysyl hydroxylase assays (Murad and Pinnell, J. Biol. Chem. 262:11, 973 (1987)). The enzyme activities are based on a unit of soluble cell protein.
(§8) The protein content of cell extracts was determined by a dye-binding technique using Bio-Rad reagent and protein standard (Bradford, Anal. Biochem. 72:248 (1976)).
Note: Cultures of human skin fibroblasts grown to confluence were
incubated for 72 h in medium supplemented with 1% ethanol containing 1 mM
of the indicated compounds. Cells were then harvested, and the enzyme
activity in extracts of these cells was measured by a tritiumrelease
incubated for 72 h in medium supplemented with 1% ethanol containing 1 nM

prolyl hydroxylase [9] = assay: Prolyl hydroxylase activity in extracts of treated human skin fibroblasts (Example 1, tritium-release assay); type: cell-based; conditions: cultured fibroblasts
Experimental: as §5
as §5, with “with 1% acetone containing various concentrations of minoxidil sulfate,” for “deoxyminoxidil”, “tritium release” for “tritium-release”
as §6, §7
The medium was then removed and the cells were washed twice with a solution containing 0.14 M NaCl, 5 mM KCl, 0.3 mM Na2 PO4, and 0.4 mM KH2 PO4, adjusted to pH 7.4. […] The trypsinization was terminated with 2 vol of 20% serum-supplemented medium, and the cell number in an aliquot of the suspension was determined using a Coulter counter. […]
as §8

[10] = test system: enzyme activity (lysyl hydroxylase, prolyl hydroxylase); assay: Direct inhibition of enzyme activity, mixing experiments with extracts of treated cells and controls; type: biochemical, human
Experimental: The functional significance of the nitroxide oxygen in minoxidil was evaluated with a deoxy analog. Shown in FIG. 2 is a comparison of the effects of minoxidil and deoxyminoxidil on the activities of lysyl hydroxylase and the control enzyme prolyl hydroxylase in cultured fibroblasts.

[11] = 1 mM, 72 hr (description table)
[12] = type I procollagen chains isolated by gel electrophoresis, mean ± range of two experiments (description table)

Row | effect on prolyl hydroxylase (in words) (prolyl hydroxylase [2]) | prolyl hydroxylase activity (in words) (prolyl hydroxylase [2]) | Structure (SMILES) | suppression of lysyl hydroxylase (in words) (lysyl hydroxylase [1]) | Fibroblast Lysyl Hydroxylase Activity (lysyl hydroxylase [1]; 1 mM) [cpm^3 H2 O/mg protein] | Lysyl Hydroxylase Activity (lysyl hydroxylase [1]; 1 mM, 72 hr (Table VI)) [cpm ^3 H2 O/mg protein] | Lysyl Hydroxylase Activity (lysyl hydroxylase [1]; [11]) [cpm^3 H2 O/mg protein] | Fibroblast Lysyl Hydroxylase Activity (lysyl hydroxylase [1]; 5 mM) [cpm^3 H2 O/mg protein] | Prolyl Hydroxylase Activity (prolyl hydroxylase [2]; 72 hr (Table VI)) [cpm ^3 H2 O/mg protein] | Prolyl Hydroxylase Activity (prolyl hydroxylase [2]; 72 hr (description table)) [cpm^3 H2 O/mg protein] | Hyp/Pro ([3]; gel electrophoresis (Table V)) | Hyp/Pro [3, 12] | activity at 1000 µM [3] [%] | Hyl/Lys ([4]; gel electrophoresis (Table V)) | Hyl/Lys [4, 12] | activity at 1000 µM [4] [%] | % Collagen Synthesized [5] [%] | 10^-6 × No. of Cells/Dish [6] | suppression of fibroblast proliferation (in words) (human skin fibroblasts) | antihypertensive / hypotensive activity (in words) [7] | other results
1 | without affecting prolyl hydroxylase | remained unchanged | Nc1cc(N2CCCC(O)C2)nc(N)[n+]1[O-] (centres unmarked) [3'-Hydroxyminoxidil] | inhibitory potential comparable to that of minoxidil; also recorded: as active as minoxidil in suppressing fibroblast proliferation and lysyl hydroxylase activity | 401 | 263 | 263 | 383 | 30512 | 30512 | 0.95 ± 0.02 | 0.95 ± 0.02 | 103 | 0.07 ± 0.01 | 0.07 ± 0.01 | 32 | 9.0 ± 0.9 | 1.39 10^-6 × No. of Cells/Dish | as active as minoxidil in suppressing fibroblast proliferation | Neither metabolite exhibits the marked hypotensive activity associated with minoxidil; also recorded: inactive as antihypertensive agents | Lysyl hydroxylase activity, % of control level (lysyl hydroxylase [1]; 1 mM, 72 hr): 22%
2 | – | – | Nc1cc(N2CCCCC2)nc(N)n1 [Deoxyminoxidil] | – | – | – | – | – | – | – | – | – | – | – | – | – | – | – | – | – | IC50 (lysyl hydroxylase [8]; 72 h (FIG. 2), read-out: concentration required for 50% inhibition (lysyl hydroxylase)): 118 µM; effect on lysyl hydroxylase activity (in words) (lysyl hydroxylase [8]; 72 h, Example 1): suppressed lysyl hydroxylase activity in a manner remarkably similar to that observed with minoxidil; IC50 (prolyl hydroxylase [9]; 72 h (FIG. 2), read-out: concentration required for 50% effect (prolyl hydroxylase)): 260 µM; effect on prolyl hydroxylase activity (in words) (prolyl hydroxylase [9]; 72 h, Example 1): suppressed prolyl hydroxylase activity in a dose-related manner; direct inhibition of enzyme activity (in words) [10]: no evidence for direct inhibition of enzyme activity
3 | without affecting prolyl hydroxylase | remained unchanged | Nc1cc(N2CCC(O)CC2)nc(N)[n+]1[O-] [4'-Hydroxyminoxidil] | inhibitory potential comparable to that of minoxidil; also recorded: as active as minoxidil in suppressing fibroblast proliferation and lysyl hydroxylase activity | 415 | 239 | 293 | 494 | 33500 | 33500 | 1.12 ± 0.07 | 1.12 ± 0.07 | 122 | 0.09 ± 0.01 | 0.09 ± 0.01 | 41 | 8.2 ± 0.6 | 1.42 10^-6 × No. of Cells/Dish | as active as minoxidil in suppressing fibroblast proliferation | Neither metabolite exhibits the marked hypotensive activity associated with minoxidil; also recorded: inactive as antihypertensive agents | –
